# Patent publication US10681909B2, “Herbicidal triazoles” (FMC Corporation, priority 2014, dated 2020)
# Key:
# Test in all cases: Test E preemergence
# Conditions in all cases: scale 0 to 100
# nutsedge, yellow = assay type: in vivo, Cyperus esculentus
# Source text: (§1) Seeds of plant species selected from corn (Zea mays), soybean (Glycine max), lambsquarters (Chenopodium album), poinsettia, wild (wild poinsettia, Euphorbia heterophylla), pigweed, palmer (palmer pigweed, Amaranthus palmeri), waterhemp (common waterhemp, Amaranthus rudis), surinam grass (Brachiaria decumbens), crabgrass, large (large crabgrass, Digitaria sanguinalis), crabgrass, Brazilian (Brazilian crabgrass, Digitaria horizontalis), panicum, fall (fall panicum, Panicum dichotomiflorum), foxtail, giant (giant foxtail, Setaria faberii), foxtail, green (green foxtail, Setaria viridis), goosegrass (Eleusine indica), johnsongrass (Sorghum halepense), ragweed (common ragweed, Ambrosia elatior), barnyardgrass (Echinochloa crus-galli), sandbur (southern sandbur, Cenchrus echinatus), arrowleaf sida (Sida rhombifolia), ryegrass, Italian (Italian ryegrass, Lolium multiflorum), dayflower, VA (Virginia dayflower, Commelina virginica), field bindweed (Convolvulus arvensis), cocklebur (common cocklebur, Xanthium strumarium), morningglory (Ipomoea coccinea), nightshade (eastern black nightshade, Solanum ptycanthum), kochia (Kochia scoparia), nutsedge, yellow (yellow nutsedge, Cyperus esculentus), smartweed (ladysthumb smartweed, Polygonum persicaria), velvetleaf (Abutilon theophrasti), horseweed (Conyza canadensis), and beggarticks (hairy beggarticks, Bidens pilosa), were planted into a silt loam soil and treated preemergence with test chemicals formulated in a non-phytotoxic solvent mixture which included a surfactant.
# (§2) At the same time, plants from these crop and weed species and also waterhemp_RES1, (ALS & Triazine resistant common waterhemp, Amaranthus rudis), and waterhemp_RES2, (ALS & HPPD resistant common waterhemp, Amaranthus rudis) were planted in pots containing Sunshine Redi-Earth® planting medium comprising spaghnum peat moss, vermiculite, starter nutrients and dolomitic limestone were treated with postemergence applications of test chemicals formulated in the same manner. Plants ranged in height from 2 to 18 cm for postemergence treatments (1- to 4-leaf stage). Treated plants and controls were maintained in a greenhouse for 14 to 21 d, after which time all species were compared to controls and visually evaluated. Plant response ratings, summarized in Table E, are based on a scale of 0 to 100 where 0 is no effect and 100 is complete control. A dash (-) response means no test result.
# crabgrass, large = assay type: in vivo, Digitaria sanguinalis
# Source text: as §1, §2
# soybean = assay type: in vivo, Glycine max
# Source text: as §1, §2
# ryegrass, Italian = assay type: in vivo, Lolium multiflorum
# Source text: as §1, §2
# nightshade = assay type: in vivo, Solanum ptycanthum
# Source text: as §1, §2
# foxtail, green = assay type: in vivo, Setaria viridis
# Source text: as §1, §2
# velvetleaf = assay type: in vivo, Abutilon theophrasti
# Source text: as §1, §2
# johnsongrass = assay type: in vivo, Sorghum halepense
# Source text: as §1, §2
# lambsquarters = assay type: in vivo, Chenopodium album
# Source text: as §1, §2
# arrowleaf sida = assay type: in vivo, Sida rhombifolia
# Source text: as §1, §2
# pigweed, palmer = assay type: in vivo, Amaranthus palmeri
# Source text: as §1, §2
# panicum, fall = assay type: in vivo, Panicum dichotomiflorum
# Source text: as §1, §2
# goosegrass = assay type: in vivo, Eleusine indica
# Source text: as §1, §2
# dayflower, VA = assay type: in vivo, Commelina virginica
# Source text: as §1, §2
# ragweed = assay type: in vivo, Ambrosia elatior
# Source text: as §1, §2
# corn = assay type: in vivo, Zea mays
# Source text: as §1, §2
smiles,measurement,setting,value
"CCCc1nc(-c2ccc(F)cc2)nn1Cc1ccnc(C(F)(F)F)c1 [Compound 6, 4-[[3-(4-fluorophenyl)-5-propyl-1H-1,2,4-triazol-1-yl]methyl]-2-(trifluoromethyl)pyridine]",Plant response rating,"nutsedge, yellow; 16 g ai/ha",0
same,Plant response rating,"nutsedge, yellow; 31 g ai/ha",0
same,Plant response rating,"nutsedge, yellow; 62 g ai/ha",15
same,Plant response rating,"nutsedge, yellow; 125 g ai/ha",30
same,Plant response rating,"nutsedge, yellow; 250 g ai/ha",40
same,Plant response rating,"crabgrass, large; 62 g ai/ha",90
same,Plant response rating,"crabgrass, large; 125 g ai/ha",100
same,Plant response rating,"crabgrass, large; 250 g ai/ha",100
same,Plant response rating,soybean; 16 g ai/ha,0
same,Plant response rating,soybean; 31 g ai/ha,10
same,Plant response rating,soybean; 62 g ai/ha,40
same,Plant response rating,soybean; 125 g ai/ha,50
same,Plant response rating,soybean; 250 g ai/ha,70
same,Plant response rating,"ryegrass, Italian; 16 g ai/ha",10
same,Plant response rating,"ryegrass, Italian; 31 g ai/ha",40
same,Plant response rating,"ryegrass, Italian; 62 g ai/ha",50
same,Plant response rating,"ryegrass, Italian; 125 g ai/ha",70
same,Plant response rating,"ryegrass, Italian; 250 g ai/ha",80
same,Plant response rating,nightshade; 16 g ai/ha,15
same,Plant response rating,nightshade; 31 g ai/ha,70
same,Plant response rating,nightshade; 62 g ai/ha,90
same,Plant response rating,nightshade; 125 g ai/ha,100
same,Plant response rating,nightshade; 250 g ai/ha,100
same,Plant response rating,"foxtail, green; 62 g ai/ha",70
same,Plant response rating,"foxtail, green; 125 g ai/ha",80
same,Plant response rating,"foxtail, green; 250 g ai/ha",100
same,Plant response rating,velvetleaf; 16 g ai/ha,0
same,Plant response rating,velvetleaf; 31 g ai/ha,30
same,Plant response rating,velvetleaf; 62 g ai/ha,40
same,Plant response rating,velvetleaf; 125 g ai/ha,50
same,Plant response rating,velvetleaf; 250 g ai/ha,70
same,Plant response rating,johnsongrass; 31 g ai/ha,40
same,Plant response rating,johnsongrass; 62 g ai/ha,50
same,Plant response rating,johnsongrass; 125 g ai/ha,80
same,Plant response rating,johnsongrass; 250 g ai/ha,100
same,Plant response rating,lambsquarters; 31 g ai/ha,70
same,Plant response rating,lambsquarters; 62 g ai/ha,100
same,Plant response rating,lambsquarters; 125 g ai/ha,100
same,Plant response rating,lambsquarters; 250 g ai/ha,100
same,Plant response rating,arrowleaf sida; 16 g ai/ha,0
same,Plant response rating,arrowleaf sida; 31 g ai/ha,0
same,Plant response rating,arrowleaf sida; 62 g ai/ha,10
same,Plant response rating,arrowleaf sida; 125 g ai/ha,30
same,Plant response rating,arrowleaf sida; 250 g ai/ha,70
same,Plant response rating,"pigweed, palmer; 16 g ai/ha",50
same,Plant response rating,"pigweed, palmer; 31 g ai/ha",75
same,Plant response rating,"pigweed, palmer; 62 g ai/ha",90
same,Plant response rating,"pigweed, palmer; 125 g ai/ha",100
same,Plant response rating,"pigweed, palmer; 250 g ai/ha",100
same,Plant response rating,"panicum, fall; 31 g ai/ha",20
same,Plant response rating,"panicum, fall; 62 g ai/ha",35
same,Plant response rating,"panicum, fall; 125 g ai/ha",95
same,Plant response rating,"panicum, fall; 250 g ai/ha",100
same,Plant response rating,goosegrass; 16 g ai/ha,15
same,Plant response rating,goosegrass; 31 g ai/ha,50
same,Plant response rating,goosegrass; 62 g ai/ha,50
same,Plant response rating,goosegrass; 125 g ai/ha,75
same,Plant response rating,goosegrass; 250 g ai/ha,100
same,Plant response rating,"dayflower, VA; 16 g ai/ha",10
same,Plant response rating,"dayflower, VA; 31 g ai/ha",60
same,Plant response rating,"dayflower, VA; 62 g ai/ha",70
same,Plant response rating,"dayflower, VA; 125 g ai/ha",80
same,Plant response rating,"dayflower, VA; 250 g ai/ha",90
same,Plant response rating,ragweed; 16 g ai/ha,10
same,Plant response rating,ragweed; 31 g ai/ha,20
same,Plant response rating,ragweed; 62 g ai/ha,20
same,Plant response rating,ragweed; 125 g ai/ha,50
same,Plant response rating,ragweed; 250 g ai/ha,90
same,Plant response rating,corn; 16 g ai/ha,0
same,Plant response rating,corn; 31 g ai/ha,15
same,Plant response rating,corn; 62 g ai/ha,30
same,Plant response rating,corn; 125 g ai/ha,50
same,Plant response rating,corn; 250 g ai/ha,60
"CCOc1nc(-c2ccc(F)cc2)nn1Cc1ccnc(C(F)(F)F)c1 [Compound 8, 4-[[5-ethoxy-3-(4-fluorophenyl)-1H-1,2,4-triazol-1-yl]methyl]-2-(trifluoromethyl)pyridine]",Plant response rating,"nutsedge, yellow; 62 g ai/ha",25
same,Plant response rating,"nutsedge, yellow; 125 g ai/ha",35
same,Plant response rating,"crabgrass, large; 62 g ai/ha",100
same,Plant response rating,"crabgrass, large; 125 g ai/ha",100
same,Plant response rating,soybean; 62 g ai/ha,50
same,Plant response rating,soybean; 125 g ai/ha,50
same,Plant response rating,"ryegrass, Italian; 62 g ai/ha",65
same,Plant response rating,"ryegrass, Italian; 125 g ai/ha",100
same,Plant response rating,nightshade; 62 g ai/ha,98
same,Plant response rating,nightshade; 125 g ai/ha,100
same,Plant response rating,"foxtail, green; 62 g ai/ha",100
same,Plant response rating,"foxtail, green; 125 g ai/ha",100
same,Plant response rating,velvetleaf; 62 g ai/ha,50
same,Plant response rating,velvetleaf; 125 g ai/ha,98
same,Plant response rating,johnsongrass; 62 g ai/ha,65
same,Plant response rating,johnsongrass; 125 g ai/ha,100
same,Plant response rating,lambsquarters; 62 g ai/ha,100
same,Plant response rating,lambsquarters; 125 g ai/ha,100
same,Plant response rating,arrowleaf sida; 62 g ai/ha,65
same,Plant response rating,arrowleaf sida; 125 g ai/ha,98
same,Plant response rating,"pigweed, palmer; 62 g ai/ha",100
same,Plant response rating,"pigweed, palmer; 125 g ai/ha",100
same,Plant response rating,"panicum, fall; 62 g ai/ha",100
same,Plant response rating,"panicum, fall; 125 g ai/ha",100
same,Plant response rating,goosegrass; 62 g ai/ha,100
same,Plant response rating,goosegrass; 125 g ai/ha,100
same,Plant response rating,"dayflower, VA; 62 g ai/ha",65
same,Plant response rating,"dayflower, VA; 125 g ai/ha",95
same,Plant response rating,ragweed; 62 g ai/ha,80
same,Plant response rating,ragweed; 125 g ai/ha,90
same,Plant response rating,corn; 62 g ai/ha,25
same,Plant response rating,corn; 125 g ai/ha,65
